Source: patent publication US4459290A, “C-23-Modified derivatives of OMT, pharmaceutical compositions and method of use” (priority 1982, dated 1984)
Converted amounts (≈) assume the structure as drawn. Where two headings read alike, the source gives them in different places.

What was measured:
Escherichia coli TEM = experiment: MIC, standard agar-dilution assay (Table V); type: cell-based; details: Escherichia coli; E. coli TEM; agar dilution; read-out: MIC
Experimental: (§1) The MIC's in Tables V and VI were determined by standard agar-dilution assays. The MIC's in Table VII were obtained using a conventional broth-dilution microtiter test.

[1] = tested on: Haemophilus influenzae R252; experiment: MIC, standard agar-dilution assay (Table V); type: cell-based; details: Haemophilus influenzae, R252
Experimental: as §1

[2] = tested on: Streptococcus pyogenes C203; experiment: MIC, standard agar-dilution assay (Table V); type: cell-based; details: Streptococcus pyogenes, C203
Experimental: as §1

[3] = tested on: Haemophilus influenzae Holt; experiment: MIC, standard agar-dilution assay (Table V); type: cell-based; details: Haemophilus influenzae
Experimental: as §1

[4] = tested on: Klebsiella pneumoniae X68; experiment: MIC, standard agar-dilution assay (Table VI); type: cell-based; details: K. pneumoniae X68, agar dilution, read-out: MIC
Experimental: (§2) Especially noteworthy is the improved activity against gram-negative bacteria for several derivatives when compared to the activity of OMT. […] The MIC's in Tables V and VI were determined by standard agar-dilution assays. The MIC's in Table VII were obtained using a conventional broth-dilution microtiter test.

Proteus rettgeri PR7 = experiment: MIC, standard agar-dilution assay (Table VI); type: cell-based; details: Providencia rettgeri; P. rettgeri PR7; agar dilution; read-out: MIC
Experimental: as §2

[5] = tested on: Pseudomonas aeruginosa X528; experiment: MIC, standard agar-dilution assay (Table VI); type: cell-based; details: X528
Experimental: as §2

Salmonella typhi 1335 = experiment: MIC, standard agar-dilution assay (Table VI); type: cell-based; details: Salmonella enterica
Experimental: as §2

[6] = tested on: Enterobacter aerogenes EB17; experiment: MIC, standard agar-dilution assay (Table VI); type: cell-based; details: Klebsiella aerogenes; E. aerogenes EB17; agar dilution; read-out: MIC
Experimental: as §2

[7] = tested on: Enterobacter aerogenes C32; experiment: MIC, standard agar-dilution assay (Table VI); type: cell-based; details: Klebsiella aerogenes; E. aerogenes C32; agar dilution; read-out: MIC
Experimental: as §2

Serratia marcescens SE3 = experiment: MIC, standard agar-dilution assay (Table VI); type: cell-based; details: S. marcescens SE3, agar dilution, read-out: MIC
Experimental: as §2

[8] = tested on: Citrobacter freundii CF17; experiment: MIC, standard agar-dilution assay (Table VI); type: cell-based; details: C. freundii CF17, agar dilution, read-out: MIC
Experimental: as §2

Proteus morganii PR15 = experiment: MIC, standard agar-dilution assay (Table VI); type: cell-based; details: Morganella morganii; P. morganii PR15; agar dilution; read-out: MIC
Experimental: as §2

Serratia marcescens X99 = experiment: MIC, standard agar-dilution assay (Table VI); type: cell-based; details: S. marcescens X99, agar dilution, read-out: MIC
Experimental: as §2

Proteus rettgeri C24 = experiment: MIC, standard agar-dilution assay (Table VI); type: cell-based; details: Providencia rettgeri, P. rettgeri C24
Experimental: as §2

[9] = tested on: Pseudomonas aeruginosa X239; experiment: MIC, standard agar-dilution assay (Table VI); type: cell-based; details: P. aeruginosa X239, agar dilution, read-out: MIC
Experimental: as §2

Proteus inconstans PR33 = experiment: MIC, standard agar-dilution assay (Table VI); type: cell-based; details: Providencia alcalifaciens; P. inconstans PR33; agar dilution; read-out: MIC
Experimental: as §2

[10] = tested on: Pseudomonas aeruginosa Ps18; experiment: MIC, standard agar-dilution assay (Table VI); type: cell-based; details: P. aeruginosa Ps18, agar dilution, read-out: MIC
Experimental: as §2

[11] = tested on: Salmonella heidelberg X514; experiment: MIC, standard agar-dilution assay (Table VI); type: cell-based; details: Salmonella enterica; S. heidelberg X514; agar dilution; read-out: MIC
Experimental: as §2

Enterobacter cloacae EB5 = experiment: MIC, standard agar-dilution assay (Table VI); type: cell-based; details: E. cloacae EB5, agar dilution, read-out: MIC
Experimental: as §2

[12] = tested on: Streptococcus pyogenes C203; experiment: ED50 in mice experimentally infected with S. pyogenes C203 (Table VIII); type: in vivo
Experimental: The C-23 modified derivatives of OMT of this invention have shown in vivo antimicrobial activity against experimental infections. When two doses of test compound were administered to mice experimentally infected with a gram-positive bacterium, S. pyogenes C203, the activity observed was measured as an ED50 value [effective dose in mg/kg to protect 50% of the test animals: see Warren Wick, et al., J. Bacteriol. 81, 233-235 (1961)].

[13] = tested on: Pasteurella multocida 60A; experiment: MIC, broth-dilution microtiter test (Table VII); type: cell-based; details: Pasteurella multocida, 60A
Outline: (§3)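 Conventional dilution MICs: agar for Enterobacter, microtiter broth for Staphylococcus and Pasteurella.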

[14] = tested on: Pasteurella hemolytica 41D; experiment: MIC, broth-dilution microtiter test (Table VII); type: cell-based; details: Pasteurella, P. hemolytica 41D, read-out: MIC
Outline: as §3

Mycoplasma gallisepticum = experiment: MIC, broth-dilution microtiter test (Table VII); type: cell-based; details: Mycoplasmoides gallisepticum
Experimental: as §2

[15] = tested on: Pasteurella multocida 68C; experiment: MIC, broth-dilution microtiter test (Table VII); type: cell-based; details: Pasteurella multocida, 68C
Outline: as §3

[16] = tested on: Pasteurella multocida 40G; experiment: MIC, broth-dilution microtiter test (Table VII); type: cell-based; details: Pasteurella multocida, 40G
Outline: as §3

Mycoplasma hyorhinis = experiment: MIC, broth-dilution microtiter test (Table VII); type: cell-based; details: M. hyorhinis; broth-dilution microtiter; read-out: MIC
Experimental: as §2

[17] = tested on: Pasteurella multocida 22A; experiment: MIC, broth-dilution microtiter test (Table VII); type: cell-based; details: Pasteurella multocida, 22A
Outline: as §3

Mycoplasma synoviae = experiment: MIC, broth-dilution microtiter test (Table VII); type: cell-based; details: Mycoplasmopsis synoviae
Experimental: as §2

[18] = tested on: Pasteurella multocida 17E; experiment: MIC, broth-dilution microtiter test (Table VII); type: cell-based; details: Pasteurella multocida, 17E
Outline: as §3

Streptococcus sp. 80 = experiment: MIC, broth-dilution microtiter test (Table VII); type: cell-based; details: Streptococcus, SP.80
Experimental: as §2

Staphylococcus aureus = experiment: MIC, broth-dilution microtiter test (Table VII); type: cell-based; details: Staphylococcus aureus
Outline: as §3

[19] = tested on: Pasteurella hemolytica 23C; experiment: MIC, broth-dilution microtiter test (Table VII); type: cell-based; details: Pasteurella, P. hemolytica 23C, read-out: MIC
Outline: as §3

[20] = tested on: Pasteurella hemolytica 22C; experiment: MIC, broth-dilution microtiter test (Table VII); type: cell-based; details: Pasteurella, P. hemolytica 22C, read-out: MIC
Outline: as §3

[21] = tested on: Staphylococcus epidermidis EPI2; experiment: MIC, standard agar-dilution assay (Table V); type: cell-based; details: Staphylococcus epidermidis, EPI2
Experimental: as §2

[22] = tested on: Streptococcus Group D X66; experiment: MIC, standard agar-dilution assay (Table V); type: cell-based
Experimental: as §2

[23] = tested on: Staphylococcus aureus X400; experiment: MIC, standard agar-dilution assay (Table V); type: cell-based; details: Staphylococcus aureus, X400
Experimental: as §2

Shigella sonnei N9 = experiment: MIC, standard agar-dilution assay (Table V); type: cell-based
Outline: (§4)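 Growth inhibition in liquid medium, in a routine microtiter broth-dilution series, gave the MIC against staphylococci and pasteurellae; the gram-negative enteric strain was tested by conventional agar dilution instead.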

[24] = tested on: Klebsiella pneumoniae KAE; experiment: MIC, standard agar-dilution assay (Table V); type: cell-based; details: Klebsiella pneumoniae; K. pneumoniae KAE; agar dilution; read-out: MIC
Outline: as §4

Streptococcus Group 9960 = experiment: MIC, standard agar-dilution assay (Table V); type: cell-based; details: GROUP9960
Experimental: as §2

[25] = tested on: Klebsiella pneumoniae X26; experiment: MIC, standard agar-dilution assay (Table V); type: cell-based; details: Klebsiella pneumoniae; K. pneumoniae X26; agar dilution; read-out: MIC
Experimental: as §2

[26] = tested on: Staphylococcus epidermidis EPI1; experiment: MIC, standard agar-dilution assay (Table V); type: cell-based; details: Staphylococcus epidermidis, EPI1
Experimental: as §2

[27] = tested on: Staphylococcus aureus S13E; experiment: MIC, standard agar-dilution assay (Table V); type: cell-based; details: Staphylococcus aureus, S13E
Experimental: as §2

Escherichia coli N10 = experiment: MIC, standard agar-dilution assay (Table V); type: cell-based; details: Escherichia coli; E. coli N10; agar dilution; read-out: MIC
Outline: as §4

[28] = tested on: Staphylococcus aureus X1.1; experiment: MIC, standard agar-dilution assay (Table V); type: cell-based; details: Staphylococcus aureus, X1.1
Experimental: as §2

Escherichia coli EC14 = experiment: MIC, standard agar-dilution assay (Table V); type: cell-based; details: Escherichia coli; E. coli EC14; agar dilution; read-out: MIC
Outline: as §4

[29] = tested on: Staphylococcus aureus V41; experiment: MIC, standard agar-dilution assay (Table V); type: cell-based; details: Staphylococcus aureus, V41
Experimental: as §2

[30] = tested on: Streptococcus pneumoniae Park I; experiment: microbe, parasite or virus in culture; type: cell-based; details: Streptococcus pneumoniae
Experimental: as §2

## CCC1OC(=O)CC(O)C(C)C(OC2OC(C)C(O)C(N(C)C)C2O)C(CC=O)CC(C)C(=O)C=CC(C)(OC)C2CC12 (stereo not shown) [Compound 17]
Escherichia coli TEM
  MIC: 64 µg/mL (≈ 105 µM)
[1]
  MIC: 8 µg/mL (≈ 13.1 µM)
[2]
  MIC: 1 µg/mL (≈ 1.63 µM)
[3]
  MIC: 8 µg/mL (≈ 13.1 µM)
[4]
  MIC: > 128 µg/mL
Proteus rettgeri PR7
  MIC: > 128 µg/mL
[5]
  MIC: 64 µg/mL (≈ 105 µM)
Salmonella typhi 1335
  MIC: > 128 µg/mL
[6]
  MIC: > 128 µg/mL
[7]
  MIC: > 128 µg/mL
Serratia marcescens SE3
  MIC: > 128 µg/mL
[8]
  MIC: > 128 µg/mL
Proteus morganii PR15
  MIC: > 128 µg/mL
Serratia marcescens X99
  MIC: > 128 µg/mL
Proteus rettgeri C24
  MIC: > 128 µg/mL
[9]
  MIC: > 128 µg/mL
Proteus inconstans PR33
  MIC: > 128 µg/mL
[10]
  MIC: > 128 µg/mL
[11]
  MIC: > 128 µg/mL
Enterobacter cloacae EB5
  MIC: > 128 µg/mL
[12]; C203, po, read-out: ED50, Oral
  ED50: > 100 mg/kg
[12]; C203, sc, read-out: ED50, Subcutaneous
  ED50: > 25 mg/kg
[13]
  MIC: 12.5 µg/mL (≈ 20.4 µM)
[14]
  MIC: 25 µg/mL (≈ 40.9 µM)
Mycoplasma gallisepticum
  MIC: 0.78 µg/mL (≈ 1.27 µM)
[15]
  MIC: 6.25 µg/mL (≈ 10.2 µM)
[16]
  MIC: 6.25 µg/mL (≈ 10.2 µM)
Mycoplasma hyorhinis
  MIC: 25 µg/mL (≈ 40.9 µM)
[17]
  MIC: 6.25 µg/mL (≈ 10.2 µM)
Mycoplasma synoviae
  MIC: 1.56 µg/mL (≈ 2.55 µM)
[18]
  MIC: 6.25 µg/mL (≈ 10.2 µM)
Streptococcus sp. 80
  MIC: 1.56 µg/mL (≈ 2.55 µM)
Staphylococcus aureus
  MIC: 3.12 µg/mL (≈ 5.1 µM)
[19]
  MIC: 25 µg/mL (≈ 40.9 µM)
[20]
  MIC: 25 µg/mL (≈ 40.9 µM)
[21]
  MIC: 2 µg/mL (≈ 3.27 µM)
[22]
  MIC: 2 µg/mL (≈ 3.27 µM)
[23]
  MIC: 2 µg/mL (≈ 3.27 µM)
Shigella sonnei N9
  MIC: > 128 µg/mL
[24]
  MIC: > 128 µg/mL
Streptococcus Group 9960
  MIC: 2 µg/mL (≈ 3.27 µM)
[25]
  MIC: 16 µg/mL (≈ 26.2 µM)
[26]
  MIC: 2 µg/mL (≈ 3.27 µM)
[27]
  MIC: 2 µg/mL (≈ 3.27 µM)
Escherichia coli N10
  MIC: > 128 µg/mL
[28]
  MIC: 2 µg/mL (≈ 3.27 µM)
Escherichia coli EC14
  MIC: > 128 µg/mL
[29]
  MIC: 2 µg/mL (≈ 3.27 µM)
[30]
  MIC: 0.25 µg/mL (≈ 0.409 µM)
